Reference: US20170343551A1, “METHOD OF DIAGNOSING AND TREATING PROSTATE CANCER” (Board of Supervisors of Louisiana State University and …, priority 2016, published 2017)

What was measured:
Format in all cases: cell-based
[1] = tested on: SPDEF mRNA in PC3 cells; experiment: SPDEF (PDEF) mRNA expression by RT-PCR in treated PC3 cells; conditions: FIG. 8A/8B
From the text: (§1) FIGS. 8A-8C show SPDEF is subjected to DNA methylation regulation.
(§2) Both culture and socioeconomic status can affect epigenetic processes; and the epigenetic modification effects can extend not only throughout the life course, but also to generations followed. DNA methylation and histone modifications are two common epigenetic mechanisms that control the expression of affected genes. […] Concomitant with the increased levels of SPDEF, 5-aza treatments reduced the cell migration and invasion ability of PC3 cells. Additionally, the inventors have also examined the distribution of CpG islands in the proximal promoter region of SPDEF. […] Expected treatment levels include, for example, azacytidine 2.5 mg/kg and decitabine 2.5 mg/kg.

[2] = tested on: PC3 cells; experiment: Cell migration ability of PC3 cells; conditions: FIG. 8C
From the text: as §1, §2

[3] = tested on: PC3 cells; experiment: Invasion ability of PC3 cells
[4] = tested on: TMS1 in PC3 cells; experiment: TMS1 expression (methylation-repressed positive control gene) in treated PC3 cells; conditions: known methylation-repressed gene as positive control, FIG. 8A
From the text: as §1

CCCC(CCC)C(=O)O [VPA, valproic acid]
expression of SPDEF (PDEF) mRNA [1]: did not alter

Nc1ncn([C@H]2C[C@H](O)[C@@H](CO)O2)c(=O)n1 [5-Aza, 5-aza-2′-deoxycytidine]
cell migration ability [2]: reduced
invasion ability [3]: reduced
expression of TMS1 [4]: induced
expression of SPDEF (PDEF) mRNA [1]: induced
